Results from paper PMC4980415 (Psychopharmacology, 2016).

Assays:
in vivo = conditions: male, Sprague-Dawley, rat, oral
Method: Standard methods of tissue extraction were used. […] Brain homogenate or plasma was then extracted with two volumes of acetonitrile and clarified by centrifugation at 12,000g for 20 min. […] Brain and plasma concentration and ratio (brain/plasma) were calculated for each compound.

[1] = system: conditioned avoidance responding in male Wistar rats; assay: Conditioned avoidance response (CAR); format: in vivo, rat
Method: The drug was administered, per os (po), by gavage to rats in a volume of 2 ml/kg body weight. Oral dosing solutions were prepared fresh daily. […] The pH of the dosing solution was adjusted to ~pH 5.5 by dropwise addition of 0.1 N NaOH in saline and volume adjusted by addition of saline in preparation for intraperitoneal (ip) dosing. […] Control treatments were always the vehicle solutions of the corresponding drugs.
Avoidance behavior, escape behavior, escape failures, and inter-trial crosses were recorded, as described here: (1) avoidance (response to CS within 10 s); (2) escape (response to CS + UCS); and (3) escape failure (if the rat was unable to respond to the shock by moving into the opposite compartment within 50 s, the trial was terminated). The inter-trial interval (end of trial to start of new trial) varied randomly between 20 and 40 s. Rats were trained for five consecutive days and adapted to the shuttle box 5 min before each training session. Training sessions consisted of about 20 trials, randomly distributed over 15 min. Only rats that performed at least 90 % avoidance on the last day of training were included in the experiments. All subsequent test sessions were preceded by a pre-test to verify continued performance in the paradigm. Pre-tests and test sessions consisted of approximately ten trials, each randomly distributed over a 7.5-min period. […] Experimental days were always separated by at least two non-experimental days. Experimental tests were separated by at least 2 days to insure drug washout.
Results from the conditioned avoidance responding (CAR) protocol were analyzed using non-parametric procedures.

Row | concentration at 1 h (in vivo; brain) [ng/mL] | concentration at 1 h (in vivo; plasma) [ng/mL] | concentration at 1 h (in vivo; plasma, plasma concentration, risperidone 2 mg/kg po plus vehicle, 1 h, ± SD, n = 3) [ng/mL] | Compound | effect on percent avoidances ([1]; 0.2 mg/kg i.p., sub-threshold dose) | effect on avoidance behaviors ([1]; 0.8 mg/kg i.p., effective dose)
1 | 15 ± 5 | 197 ± 91 | 162 ± 70 | Cc1nc2n(c(=O)c1CCN1CCC(c3noc4cc(F)ccc34)CC1)CCCC2O (centres unmarked) [Paliperidone, paliperidone] | – | –
2 | – | – | – | Cc1nc2n(c(=O)c1CCN1CCC(c3noc4cc(F)ccc34)CC1)CCCC2 [Risperidone, reference compound] | no effect | significant inhibition
